Consider one compound from article PMC6704710, “Preclinical evaluation of 3D185, a novel potent inhibitor of FGFR1/2/3 and CSF-1R, in FGFR-dependent and macrophage-dominant cancer models” (Journal of Experimental & Clinical Cancer Research : CR, 2019).

Usually inhibition stands for the relative decrease from the control value, in per cent.

What all share (experiment): Eurofins kinase panel
Assay type in all cases: biochemical
What all share (conditions): read-out: Inhibition rate (%)

One assay concerns the target T1, Pim-2(h) (Homo sapiens, UniProt Q9P1W9).
T1 construct: purchased Eurofins (KinaseProfiler)

Another assay deals with T2, ROCK-II(h) (Homo sapiens, UniProt O75116).
T2 construct: purchased Eurofins (KinaseProfiler)
T2 sequence (O75116 whole entry): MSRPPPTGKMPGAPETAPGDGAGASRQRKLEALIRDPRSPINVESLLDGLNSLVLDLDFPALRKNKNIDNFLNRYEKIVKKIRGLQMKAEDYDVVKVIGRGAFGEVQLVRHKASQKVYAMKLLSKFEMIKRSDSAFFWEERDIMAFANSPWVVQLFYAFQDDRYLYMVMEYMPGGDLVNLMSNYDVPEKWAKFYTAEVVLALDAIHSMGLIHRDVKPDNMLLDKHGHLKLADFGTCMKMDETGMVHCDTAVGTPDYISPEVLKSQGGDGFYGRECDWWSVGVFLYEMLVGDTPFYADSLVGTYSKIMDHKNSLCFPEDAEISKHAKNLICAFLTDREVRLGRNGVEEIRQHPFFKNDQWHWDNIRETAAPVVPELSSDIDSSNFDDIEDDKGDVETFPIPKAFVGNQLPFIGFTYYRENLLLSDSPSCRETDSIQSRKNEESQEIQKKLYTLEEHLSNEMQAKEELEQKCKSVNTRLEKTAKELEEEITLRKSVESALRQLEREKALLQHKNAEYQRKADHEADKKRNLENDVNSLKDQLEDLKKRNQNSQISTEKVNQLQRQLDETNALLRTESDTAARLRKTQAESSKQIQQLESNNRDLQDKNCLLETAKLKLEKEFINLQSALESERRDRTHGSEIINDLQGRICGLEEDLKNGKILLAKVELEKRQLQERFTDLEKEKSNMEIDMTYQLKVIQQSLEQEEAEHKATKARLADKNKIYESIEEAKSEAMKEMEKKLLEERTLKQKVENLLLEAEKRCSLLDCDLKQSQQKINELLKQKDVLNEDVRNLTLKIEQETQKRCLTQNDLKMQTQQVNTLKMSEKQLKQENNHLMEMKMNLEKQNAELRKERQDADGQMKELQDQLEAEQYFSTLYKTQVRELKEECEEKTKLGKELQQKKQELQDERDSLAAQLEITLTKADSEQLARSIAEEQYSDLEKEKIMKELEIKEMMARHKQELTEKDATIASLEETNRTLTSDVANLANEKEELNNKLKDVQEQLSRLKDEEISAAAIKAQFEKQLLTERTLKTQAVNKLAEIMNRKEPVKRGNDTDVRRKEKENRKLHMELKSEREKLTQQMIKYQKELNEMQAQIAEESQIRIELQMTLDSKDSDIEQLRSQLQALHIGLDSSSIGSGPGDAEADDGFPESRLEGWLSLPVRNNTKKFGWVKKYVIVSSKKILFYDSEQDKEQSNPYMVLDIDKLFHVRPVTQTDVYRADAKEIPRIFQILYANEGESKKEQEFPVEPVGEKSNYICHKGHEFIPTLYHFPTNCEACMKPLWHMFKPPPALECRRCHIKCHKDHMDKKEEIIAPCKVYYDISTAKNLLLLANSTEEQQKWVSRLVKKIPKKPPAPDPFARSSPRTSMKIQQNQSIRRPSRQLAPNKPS

The next assay has as its target T3, Plk1(h) (Homo sapiens, UniProt P53350).
T3 construct: purchased Eurofins (KinaseProfiler)

Another assay deals with T4, Met(h) (Homo sapiens, UniProt P08581).
T4 construct: purchased Eurofins (KinaseProfiler)
T4 sequence (P08581 25-1390): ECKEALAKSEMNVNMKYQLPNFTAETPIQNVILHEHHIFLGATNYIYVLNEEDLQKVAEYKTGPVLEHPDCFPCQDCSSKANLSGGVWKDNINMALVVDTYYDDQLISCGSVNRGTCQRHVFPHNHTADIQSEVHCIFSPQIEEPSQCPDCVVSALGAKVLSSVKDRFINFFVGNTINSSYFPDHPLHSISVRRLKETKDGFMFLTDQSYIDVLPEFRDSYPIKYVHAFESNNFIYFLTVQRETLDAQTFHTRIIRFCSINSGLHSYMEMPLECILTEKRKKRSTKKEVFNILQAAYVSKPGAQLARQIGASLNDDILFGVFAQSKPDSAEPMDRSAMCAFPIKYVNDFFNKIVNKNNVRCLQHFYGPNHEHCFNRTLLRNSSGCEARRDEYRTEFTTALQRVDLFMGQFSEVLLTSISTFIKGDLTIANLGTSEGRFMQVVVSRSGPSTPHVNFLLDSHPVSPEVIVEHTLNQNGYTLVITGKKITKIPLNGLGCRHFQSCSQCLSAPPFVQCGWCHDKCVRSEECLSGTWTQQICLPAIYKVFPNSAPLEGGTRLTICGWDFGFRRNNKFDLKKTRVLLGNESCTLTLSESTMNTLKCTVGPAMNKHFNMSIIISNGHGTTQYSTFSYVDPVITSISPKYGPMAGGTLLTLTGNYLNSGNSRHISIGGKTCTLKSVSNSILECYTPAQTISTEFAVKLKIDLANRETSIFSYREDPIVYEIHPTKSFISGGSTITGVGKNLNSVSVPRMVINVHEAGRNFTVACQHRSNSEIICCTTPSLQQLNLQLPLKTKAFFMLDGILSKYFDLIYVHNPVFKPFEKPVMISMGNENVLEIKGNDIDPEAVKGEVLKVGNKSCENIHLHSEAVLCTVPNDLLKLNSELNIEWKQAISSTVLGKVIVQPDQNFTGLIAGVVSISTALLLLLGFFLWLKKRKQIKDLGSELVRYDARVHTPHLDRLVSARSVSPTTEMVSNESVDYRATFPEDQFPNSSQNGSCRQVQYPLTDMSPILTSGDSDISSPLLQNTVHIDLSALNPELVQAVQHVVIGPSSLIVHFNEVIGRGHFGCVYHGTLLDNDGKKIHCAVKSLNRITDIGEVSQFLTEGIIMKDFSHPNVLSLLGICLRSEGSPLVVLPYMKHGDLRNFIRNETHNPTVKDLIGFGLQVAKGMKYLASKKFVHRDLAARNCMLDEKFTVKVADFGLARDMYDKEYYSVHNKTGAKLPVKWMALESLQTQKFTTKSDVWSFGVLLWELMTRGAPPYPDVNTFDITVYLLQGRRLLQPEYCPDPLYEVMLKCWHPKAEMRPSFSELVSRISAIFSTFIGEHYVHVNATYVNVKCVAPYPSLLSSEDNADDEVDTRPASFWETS

A further assay has as its target T5, EphA3(h) (Homo sapiens, UniProt P29320).
T5 construct: purchased Eurofins (KinaseProfiler)
T5 sequence (P29320 21-983): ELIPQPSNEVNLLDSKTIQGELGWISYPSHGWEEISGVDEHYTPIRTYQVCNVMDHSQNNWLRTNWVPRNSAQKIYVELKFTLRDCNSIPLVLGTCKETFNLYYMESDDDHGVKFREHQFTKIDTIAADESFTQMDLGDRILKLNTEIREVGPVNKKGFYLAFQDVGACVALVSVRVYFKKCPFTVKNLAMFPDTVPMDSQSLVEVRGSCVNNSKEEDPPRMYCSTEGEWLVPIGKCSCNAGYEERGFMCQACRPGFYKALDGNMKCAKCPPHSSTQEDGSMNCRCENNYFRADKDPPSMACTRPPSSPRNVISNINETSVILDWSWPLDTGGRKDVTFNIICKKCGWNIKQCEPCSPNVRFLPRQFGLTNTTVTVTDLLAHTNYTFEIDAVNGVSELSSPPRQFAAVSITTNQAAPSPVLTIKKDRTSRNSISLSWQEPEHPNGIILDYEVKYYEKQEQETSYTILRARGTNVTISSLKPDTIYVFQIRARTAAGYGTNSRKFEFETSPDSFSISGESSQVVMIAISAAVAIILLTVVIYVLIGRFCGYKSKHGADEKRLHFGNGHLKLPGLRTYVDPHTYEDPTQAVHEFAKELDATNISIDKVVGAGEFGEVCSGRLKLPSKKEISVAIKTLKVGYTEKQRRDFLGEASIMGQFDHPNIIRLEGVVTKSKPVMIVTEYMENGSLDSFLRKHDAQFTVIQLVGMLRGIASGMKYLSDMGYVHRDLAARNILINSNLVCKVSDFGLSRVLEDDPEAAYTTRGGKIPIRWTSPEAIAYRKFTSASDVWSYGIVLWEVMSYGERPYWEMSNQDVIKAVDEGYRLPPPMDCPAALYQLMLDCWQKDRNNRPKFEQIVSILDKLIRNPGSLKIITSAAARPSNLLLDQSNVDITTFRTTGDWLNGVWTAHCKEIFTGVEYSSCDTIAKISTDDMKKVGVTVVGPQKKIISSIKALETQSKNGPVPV

The target of a further assay is T6, TTK(h) (Homo sapiens, UniProt P33981).
T6 construct: purchased Eurofins (KinaseProfiler)
T6 sequence (P33981 1-857): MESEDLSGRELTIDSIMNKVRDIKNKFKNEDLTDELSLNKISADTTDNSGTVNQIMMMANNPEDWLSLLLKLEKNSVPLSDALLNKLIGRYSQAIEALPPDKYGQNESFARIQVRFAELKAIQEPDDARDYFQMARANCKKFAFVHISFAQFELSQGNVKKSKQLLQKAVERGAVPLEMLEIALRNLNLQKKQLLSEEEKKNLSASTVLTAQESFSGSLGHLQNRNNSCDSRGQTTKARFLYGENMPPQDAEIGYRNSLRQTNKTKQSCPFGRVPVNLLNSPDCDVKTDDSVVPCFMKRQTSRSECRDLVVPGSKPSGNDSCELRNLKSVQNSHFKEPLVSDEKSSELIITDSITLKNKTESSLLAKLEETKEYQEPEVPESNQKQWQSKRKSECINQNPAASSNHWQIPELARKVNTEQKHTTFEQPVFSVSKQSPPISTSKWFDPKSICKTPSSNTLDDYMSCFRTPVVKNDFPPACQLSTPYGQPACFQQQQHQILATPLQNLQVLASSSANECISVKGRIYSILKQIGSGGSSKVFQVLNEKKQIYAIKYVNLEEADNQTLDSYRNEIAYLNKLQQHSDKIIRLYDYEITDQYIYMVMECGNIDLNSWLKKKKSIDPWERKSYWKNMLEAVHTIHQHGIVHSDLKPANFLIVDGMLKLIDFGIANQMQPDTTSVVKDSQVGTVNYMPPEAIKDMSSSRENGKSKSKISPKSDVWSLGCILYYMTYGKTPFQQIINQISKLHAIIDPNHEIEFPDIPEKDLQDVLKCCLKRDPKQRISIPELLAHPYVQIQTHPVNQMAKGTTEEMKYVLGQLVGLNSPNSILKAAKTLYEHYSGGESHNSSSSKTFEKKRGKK

The target in the next assay is T7, HPK1(h) (Homo sapiens, UniProt Q92918).
T7 construct: purchased Eurofins (KinaseProfiler)
T7 sequence (Q92918 whole entry): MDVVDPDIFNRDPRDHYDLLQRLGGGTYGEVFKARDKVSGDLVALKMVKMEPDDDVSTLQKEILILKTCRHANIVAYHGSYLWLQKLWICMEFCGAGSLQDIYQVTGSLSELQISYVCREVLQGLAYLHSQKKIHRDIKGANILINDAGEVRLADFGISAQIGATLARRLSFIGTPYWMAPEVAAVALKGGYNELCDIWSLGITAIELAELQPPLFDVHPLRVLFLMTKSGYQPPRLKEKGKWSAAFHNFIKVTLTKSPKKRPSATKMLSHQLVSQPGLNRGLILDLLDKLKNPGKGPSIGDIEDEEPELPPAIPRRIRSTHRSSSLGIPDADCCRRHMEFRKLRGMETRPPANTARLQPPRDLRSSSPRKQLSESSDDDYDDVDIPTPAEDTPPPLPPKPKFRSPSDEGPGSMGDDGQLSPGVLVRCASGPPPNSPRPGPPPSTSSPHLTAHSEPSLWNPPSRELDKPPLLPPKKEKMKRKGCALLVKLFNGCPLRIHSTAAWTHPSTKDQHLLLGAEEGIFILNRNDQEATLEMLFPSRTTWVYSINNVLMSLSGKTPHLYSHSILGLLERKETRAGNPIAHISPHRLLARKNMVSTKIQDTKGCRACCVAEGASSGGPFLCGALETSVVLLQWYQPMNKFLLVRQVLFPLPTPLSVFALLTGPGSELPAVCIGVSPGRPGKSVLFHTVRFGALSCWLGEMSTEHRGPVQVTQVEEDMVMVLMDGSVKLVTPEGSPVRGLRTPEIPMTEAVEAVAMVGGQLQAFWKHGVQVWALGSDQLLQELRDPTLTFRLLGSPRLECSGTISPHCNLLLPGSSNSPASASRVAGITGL

Another assay concerns the target T8, CK1γ2(h) (Homo sapiens, UniProt P78368).
T8 construct: purchased Eurofins (KinaseProfiler)

T8 sequence (P78368 whole entry): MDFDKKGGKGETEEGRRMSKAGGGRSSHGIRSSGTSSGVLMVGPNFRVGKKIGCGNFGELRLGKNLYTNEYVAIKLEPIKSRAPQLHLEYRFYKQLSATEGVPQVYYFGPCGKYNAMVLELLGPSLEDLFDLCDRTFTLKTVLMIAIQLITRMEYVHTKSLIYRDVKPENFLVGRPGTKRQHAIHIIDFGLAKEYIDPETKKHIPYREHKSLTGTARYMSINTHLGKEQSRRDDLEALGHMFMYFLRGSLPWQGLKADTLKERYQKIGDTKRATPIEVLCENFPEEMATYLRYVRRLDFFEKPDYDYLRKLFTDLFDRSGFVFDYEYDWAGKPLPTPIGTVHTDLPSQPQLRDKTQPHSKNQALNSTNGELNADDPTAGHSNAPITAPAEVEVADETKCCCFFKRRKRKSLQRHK
T3 sequence (P53350 whole entry): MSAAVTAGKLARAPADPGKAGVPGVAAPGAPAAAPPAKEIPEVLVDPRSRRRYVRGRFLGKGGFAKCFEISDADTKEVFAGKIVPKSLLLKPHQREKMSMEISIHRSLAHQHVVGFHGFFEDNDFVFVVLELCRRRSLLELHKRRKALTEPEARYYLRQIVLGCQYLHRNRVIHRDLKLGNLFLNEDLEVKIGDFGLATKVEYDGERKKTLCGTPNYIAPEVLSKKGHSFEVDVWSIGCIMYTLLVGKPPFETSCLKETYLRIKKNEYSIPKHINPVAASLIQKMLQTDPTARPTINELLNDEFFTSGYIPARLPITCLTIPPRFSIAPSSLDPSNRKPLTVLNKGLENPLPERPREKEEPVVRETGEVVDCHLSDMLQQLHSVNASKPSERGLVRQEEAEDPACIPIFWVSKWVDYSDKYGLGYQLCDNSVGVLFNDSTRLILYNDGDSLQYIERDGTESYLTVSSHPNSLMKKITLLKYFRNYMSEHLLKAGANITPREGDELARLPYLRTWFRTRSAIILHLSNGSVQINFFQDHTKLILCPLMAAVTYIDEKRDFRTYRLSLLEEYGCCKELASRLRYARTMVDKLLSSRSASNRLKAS
T1 sequence (Q9P1W9 whole entry): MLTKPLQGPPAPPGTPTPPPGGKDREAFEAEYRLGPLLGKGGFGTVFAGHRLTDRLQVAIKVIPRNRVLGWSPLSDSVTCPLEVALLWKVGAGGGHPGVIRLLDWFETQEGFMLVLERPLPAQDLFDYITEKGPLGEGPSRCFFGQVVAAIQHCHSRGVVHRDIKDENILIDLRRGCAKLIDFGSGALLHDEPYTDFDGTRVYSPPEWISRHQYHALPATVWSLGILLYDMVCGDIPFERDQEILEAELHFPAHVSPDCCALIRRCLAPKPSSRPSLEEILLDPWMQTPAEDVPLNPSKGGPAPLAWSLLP

Take `COc1cc(OC)c(Cl)c(-c2ccc3c(NC(=O)c4ccc(N5CCNC(C)(C)C5)cc4)n[nH]c3n2)c1Cl` [3D185]: the inhibition at 0.01 µM is 11% on Pim-2(h) (10 nM); 0% at ROCK-II(h) (10 nM); -6% at Plk1(h) (10 nM); 16% on Met(h) (10 nM); 2% at EphA3(h) (10 nM); 5% at TTK(h) (10 nM). The inhibition at 0.01 µM on HPK1(h) (10 nM) is 17%; on CK1γ2(h) (10 nM), -9%. Besides, the inhibition at 0.1 µM on Pim-2(h) (100 nM) is 3%; on ROCK-II(h) (100 nM) it was -1%; at Plk1(h) (100 nM) it was 2%; at Met(h) (100 nM), 15%; at EphA3(h) (100 nM), 14%; on TTK(h) (100 nM), -2%. For the same compound, the inhibition at 0.1 µM was 65% on HPK1(h) (100 nM) and -8% on CK1γ2(h) (100 nM). In addition, the inhibition at 1 µM on Pim-2(h) (1000 nM) is 6%; on ROCK-II(h) (1000 nM) it was -1%; on Plk1(h) (1000 nM), -4%; at Met(h) (1000 nM) it was 55%; on EphA3(h) (1000 nM), 30%; on TTK(h) (1000 nM), 12%. Besides, the inhibition at 1 µM at HPK1(h) (1000 nM) is 94%; at CK1γ2(h) (1000 nM), -7%.
